Assays:
human S1P1 = human S1P1 (Homo sapiens (Human), UniProt P21453); experiment: S1P1 binding assay (33P-S1P radioligand competition, CHO cell membranes); settings: phosphate examples; read-out: S1P1 Binding
Method in brief: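 Radioligand is 33P-S1P, competing for membranes from human S1P1-expressing CHO cells. Membranes resuspended in 50 mM HEPES pH 7.5, 100 mM NaCl, 1 mM MgCl2, 2 mM EDTA.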

[1] = target: S1P3 (membranes prepared from EDG3-Gal5-bla HEK293T cells) (Homo sapiens (Human), UniProt Q99500); experiment: Receptor [35S] GTPγS binding assay (S1P3 GTPγS); format: biochemical; settings: phosphate examples; read-out: S1P3 GTPγS
Chain of S1P3 (membranes prepared from EDG3-Gal5-bla HEK293T cells) (Q99500 whole entry): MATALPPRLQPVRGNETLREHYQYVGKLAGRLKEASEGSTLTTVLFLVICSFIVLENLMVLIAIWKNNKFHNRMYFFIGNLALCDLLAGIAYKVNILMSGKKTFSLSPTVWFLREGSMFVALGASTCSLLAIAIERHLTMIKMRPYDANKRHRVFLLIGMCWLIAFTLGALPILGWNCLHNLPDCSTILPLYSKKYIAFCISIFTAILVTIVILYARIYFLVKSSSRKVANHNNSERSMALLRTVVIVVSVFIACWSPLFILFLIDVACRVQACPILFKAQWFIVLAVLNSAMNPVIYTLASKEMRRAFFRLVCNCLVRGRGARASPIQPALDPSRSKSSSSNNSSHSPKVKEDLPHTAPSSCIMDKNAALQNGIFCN
Method in brief: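 Membranes (3 μg protein/well) from S1P1/CHO cells or EDG3-Gal5-bla HEK293T cells (S1P3) were incubated 45 min at room temperature with 0.2 nM final [35S]GTPγS in HEPES pH 7.5 buffer with 10 μM GDP, MgCl2 and saponin. Bound label counted after filtration; EC50 from 11-point, 3-fold dilutions.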

hS1P1/CHO cells = hS1P1/CHO cells (Homo sapiens (Human), UniProt P21453); experiment: hS1P1 ERK phosphorylation (S1P1 pERK); format: cell-based; settings: phosphate examples
Chain of hS1P1/CHO cells (P21453 whole entry): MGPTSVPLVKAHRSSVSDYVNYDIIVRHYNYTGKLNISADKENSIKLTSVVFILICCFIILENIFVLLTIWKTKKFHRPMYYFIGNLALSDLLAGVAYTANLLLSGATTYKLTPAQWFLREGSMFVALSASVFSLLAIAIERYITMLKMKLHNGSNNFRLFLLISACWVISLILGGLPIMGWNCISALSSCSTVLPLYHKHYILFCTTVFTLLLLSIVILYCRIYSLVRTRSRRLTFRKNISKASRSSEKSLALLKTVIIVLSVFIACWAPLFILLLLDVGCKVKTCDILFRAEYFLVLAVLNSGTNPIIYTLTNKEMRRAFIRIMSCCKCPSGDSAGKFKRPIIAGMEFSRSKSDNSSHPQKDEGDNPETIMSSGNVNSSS
Method in brief: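 Agonism read as ERK phosphorylation (SureFire pERK) in hS1P1/CHO lysates, normalised to the maximal effect of 10 μM S1P. Cells were held 2 h in serum-free medium, then treated with compound for 7 min at 37° C. in HBSS/20 mM HEPES.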

[2] = target: S1P1 (membranes prepared from S1P1/CHO cells) (Homo sapiens (Human), UniProt P21453); experiment: Receptor [35S] GTPγS binding assay (S1P1 GTPγS); format: biochemical; settings: phosphate examples; read-out: S1P1 GTPγS
Chain of S1P1 (membranes prepared from S1P1/CHO cells) (P21453 whole entry): as above
Method in brief: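 Agonist-stimulated [35S]GTPγS binding (0.2 nM final) to S1P1/CHO membranes, 3 μg protein/well, measured after 45 min at room temperature. Buffer contained 10 μM GDP, saponin and fatty-acid-free BSA at pH 7.5. Compounds tested as 11-point 3-fold series; bound label captured on filters, scintillation-counted, EC50 reported.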

Chain of human S1P1 (P21453 whole entry): as above

| SMILES | IC50 (human S1P1) [nM] | EC50 [1] [nM] | EC50 (hS1P1/CHO cells) [nM] | EC50 [2] [nM] |
| --- | --- | --- | --- | --- |
| C=CCCOC[C@@H]1CCc2cc([C@H]3CC[C@](N)(COP(=O)(O)O)C3)ccc2C1 [compound 452] | < 10 | > 625 | < 10 | < 10 |
| CC(C)=CCOC[C@@H]1CCc2cc([C@H]3CC[C@](N)(COP(=O)(O)O)C3)ccc2C1 [compound 453] | 10 to 100 | > 625 | < 10 | 10 to 100 |
| C=CCCCOC[C@@H]1CCc2cc([C@H]3CC[C@](N)(COP(=O)(O)O)C3)ccc2C1 [compound 454] | < 10 | > 625 | < 10 | 10 to 100 |
| CC/C=C\COC[C@@H]1CCc2cc([C@H]3CC[C@](N)(COP(=O)(O)O)C3)ccc2C1 [compound 455] | < 10 | > 625 | < 10 | < 10 |
| CCC=CCOC[C@@H]1CCc2cc([C@H]3CC[C@](N)(COP(=O)(O)O)C3)ccc2C1 [compound 456] | 10 to 100 | > 625 | < 10 | < 10 |
| CC(C)CCOC[C@@H]1CCc2cc([C@H]3CC[C@](N)(COP(=O)(O)O)C3)ccc2C1 [compound 457] | < 10 | > 625 | < 10 | 10 to 100 |
| COCCCOC[C@@H]1CCc2cc([C@H]3CC[C@](N)(COP(=O)(O)O)C3)ccc2C1 [compound 458] | < 10 | > 625 | < 10 | 10 to 100 |
| N[C@]1(COP(=O)(O)O)CC[C@H](c2ccc3c(c2)CC[C@H](COc2ccccc2)C3)C1 [compound 459] | < 10 | > 625 | < 10 | 10 to 100 |
| CC(C)=CCCOC[C@@H]1CCc2cc([C@H]3CC[C@](N)(COP(=O)(O)O)C3)ccc2C1 [compound 461] | < 10 | > 625 | < 10 | < 10 |
| CCCC=CCOC[C@@H]1CCc2cc([C@H]3CC[C@](N)(COP(=O)(O)O)C3)ccc2C1 [compound 462] | < 10 | > 50 | < 10 | < 10 |
| CC(C)(C)CCOC[C@@H]1CCc2cc([C@H]3CC[C@](N)(COP(=O)(O)O)C3)ccc2C1 [compound 464] | < 10 | > 625 | 10 to 100 | < 10 |
| Cc1ccc(OC[C@H]2CCc3cc([C@H]4CC[C@](N)(COP(=O)(O)O)C4)ccc3C2)cc1 [compound 466] | 10 to 100 | > 625 | 10 to 100 | 10 to 100 |
| Cc1ccc(OC[C@@H]2CCc3cc([C@H]4CC[C@](N)(COP(=O)(O)O)C4)ccc3C2)cc1 [compound 467] | 10 to 100 | > 625 | 10 to 100 | 10 to 100 |
| Cc1ccccc1OC[C@H]1CCc2cc([C@H]3CC[C@](N)(COP(=O)(O)O)C3)ccc2C1 [compound 468] | < 10 | > 625 | 10 to 100 | 10 to 100 |
| Cc1ccccc1OC[C@@H]1CCc2cc([C@H]3CC[C@](N)(COP(=O)(O)O)C3)ccc2C1 [compound 469] | 10 to 100 | > 625 | < 10 | 10 to 100 |
| Cc1cccc(OC[C@@H]2CCc3cc([C@H]4CC[C@](N)(COP(=O)(O)O)C4)ccc3C2)c1 [compound 470] | 100 to 1000 | > 625 | < 10 | 10 to 100 |
| N[C@]1(COP(=O)(O)O)CC[C@H](c2ccc3c(c2)CC[C@@H](COCc2cccs2)C3)C1 [compound 472] | 100 to 1000 | > 625 | < 10 | 100 to 1000 |

| SMILES | IC50 (human S1P1) [nM] | EC50 [1] [nM] | EC50 (hS1P1/CHO cells) [nM] | EC50 [2] [nM] |
| --- | --- | --- | --- | --- |
| Cc1ccc(COC[C@@H]2CCc3cc([C@H]4CC[C@](N)(COP(=O)(O)O)C4)ccc3C2)cc1 [compound 474] | < 10 | > 625 | < 10 | 10 to 100 |
| COc1ccccc1OC[C@@H]1CCc2cc([C@H]3CC[C@](N)(COP(=O)(O)O)C3)ccc2C1 [compound 475] | < 10 | > 625 | < 10 | 10 to 100 |
| COc1ccc(OC[C@@H]2CCc3cc([C@H]4CC[C@](N)(COP(=O)(O)O)C4)ccc3C2)cc1 [compound 476] | 10 to 100 | > 625 | 10 to 100 | 10 to 100 |
| COc1cncc(OC[C@@H]2CCc3cc([C@H]4CC[C@](N)(COP(=O)(O)O)C4)ccc3C2)c1 [compound 477] | < 10 | > 625 | < 10 | 10 to 100 |
| CC(C)c1cccc(OC[C@@H]2CCc3cc([C@H]4CC[C@](N)(COP(=O)(O)O)C4)ccc3C2)c1 [compound 478] | 10 to 100 | > 625 | 10 to 100 | 10 to 100 |
| CC(C)c1ccc(OC[C@@H]2CCc3cc([C@H]4CC[C@](N)(COP(=O)(O)O)C4)ccc3C2)cc1 [compound 479] | 100 to 1000 | > 625 | 10 to 100 | 10 to 100 |
| COCc1cccc(OC[C@@H]2CCc3cc([C@H]4CC[C@](N)(COP(=O)(O)O)C4)ccc3C2)c1 [compound 480] | 1000 to 10000 | > 625 | 100 to 1000 | < 10 |
| COc1cccc(COC[C@H]2CCc3cc([C@H]4CC[C@](N)(COP(=O)(O)O)C4)ccc3C2)c1 [compound 481] | < 10 | > 625 | < 10 | < 10 |
| COc1ccc(COC[C@@H]2CCc3cc([C@H]4CC[C@](N)(COP(=O)(O)O)C4)ccc3C2)cc1 [compound 482] | 100 to 1000 | > 625 | 10 to 100 | 10 to 100 |
| COc1ccc(F)c(OC[C@@H]2CCc3cc([C@H]4CC[C@](N)(COP(=O)(O)O)C4)ccc3C2)c1 [compound 484] | 100 to 1000 | > 625 | 10 to 100 | 10 to 100 |
| COc1cc(OC[C@@H]2CCc3cc([C@H]4CC[C@](N)(COP(=O)(O)O)C4)ccc3C2)ccc1F [compound 485] | 10 to 100 | > 625 | 10 to 100 | 10 to 100 |
| CCc1ccc(COC[C@@H]2CCc3cc([C@H]4CC[C@](N)(COP(=O)(O)O)C4)ccc3C2)s1 [compound 489] | < 10 | > 625 | < 10 | 10 to 100 |
| CN(C)Cc1cccc(OC[C@@H]2CCc3cc([C@H]4CC[C@](N)(COP(=O)(O)O)C4)ccc3C2)c1 [compound 490] | < 10 | > 625 | 10 to 100 | 100 to 1000 |
| COc1ccc(OC[C@@H]2CCc3cc([C@H]4CC[C@](N)(COP(=O)(O)O)C4)ccc3C2)cc1OC [compound 491] | < 10 | > 625 | 10 to 100 | < 10 |
| COc1cc(OC[C@@H]2CCc3cc([C@H]4CC[C@](N)(COP(=O)(O)O)C4)ccc3C2)ccc1Cl [compound 493] | < 10 | > 625 | 10 to 100 | < 10 |
| COc1ccc(OC[C@@H]2CCc3cc([C@H]4CC[C@](N)(COP(=O)(O)O)C4)ccc3C2)c(F)c1F [compound 494] | 10 to 100 | > 625 | 10 to 100 | 10 to 100 |
| CN(C)C(=O)c1cccc(OC[C@@H]2CCc3cc([C@H]4CC[C@](N)(COP(=O)(O)O)C4)ccc3C2)c1 [compound 495] | 10 to 100 | > 625 | < 10 | 10 to 100 |
